Laboratory results as given in paper PMC12561106, “STOP Strategy to Inhibit P. falciparum and S. aureus Growth: Molecular Mechanism Studies on Purposely Designed Hybrids” (Antibiotics, 2025).
Converted amounts (≈) assume the structure as drawn. Read-outs that look alike come from different tables or passages of the source.

Assays:
Format in all cases: cell-based
E. coli ATCC 25923 = experiment: broth microdilution antimicrobial assay (MIC); settings: Escherichia coli, ATCC25923, 24 h, range 100–0.19 µM
[1] = test system: P. falciparum CQ-sensitive (CQ-S) D10 strain; experiment: antiplasmodial drug susceptibility assay (pLDH), CQ-sensitive strain; settings: Plasmodium falciparum; P. falciparum D10, 72 h, pLDH; mean value with standard deviation; read-out: IC50 D10 (CQ-S)
Procedure: (§1) P. falciparum cultures were carried out according to Trager and Jensen with slight modifications. The CQ-sensitive strain D10 and the CQ-resistant strain W2 were maintained at 5% hematocrit (human A-positive erythrocytes) in RPMI 1640 medium (EuroClone S.p.A, Milan, Italy) with the addition of 1% AlbuMax (Invitrogen, San Diego, California, USA), 0.01% hypoxanthine, 20 mM Hepes, and 2 mM glutamine at 37 °C in a standard gas mixture (1% O2, 5% CO2, and 94% N2). […] Drugs were placed in 96-well flat-bottomed microplates, and serial dilutions were made. Asynchronous cultures with parasitaemia of 1–1.5% and 1% final hematocrit were aliquoted into the plates and incubated for 72 h at 37 °C. Parasite growth was determined spectrophotometrically (OD650nm) by measuring the activity of the parasite lactate dehydrogenase (pLDH), as described in a modified version of Makler’s method in control- and drug-treated cultures. The antiplasmodial activity is expressed as 50% inhibitory concentrations (IC50); each IC50 value is the mean ± standard deviation of at least three separate experiments performed in duplicate.

S. aureus ATCC 25923 = experiment: broth microdilution antimicrobial assay (MIC, IC50); settings: Staphylococcus aureus, ATCC25923; for MIC: broth microdilution, 24 h, range 100–0.19 µM
Description: (§2) Reference bacterial strains of Staphylococcus aureus (ATCC 25923) and Escherichia coli (ATCC 25922) were used in this study as Gram-positive and negative models, respectively. These reference strains were purchased from the American Type Culture Collection (ATCC, Manassas, VA, USA). Clinical isolates, identified by MALDI-TOF MS (Bruker Daltonik, GmbH, Bremen, Germany), were profiled for their antibiotic susceptibility by using the Vitek2 semiautomated system (bioMérieux, Craponne, France) and according to EUCAST (Version 12, 2022, http://www.eucast.org (accessed on 1 January 2022)). The bacterial cultures were routinely grown on 5% blood agar plates (Biolife Italiana S.r.l., Milan, Italy) and were freshly used in the antibacterial assays.
(§3) The minimum inhibitory concentrations (MICs) were determined using the microbroth dilution method in microtiter plates according to the Clinical and Laboratory Standards Institute (CLSI) guidelines. In short, microbial inocula were prepared at 0.5 McFarland in PBS and, subsequently, bacterial suspensions were diluted 1:200 in Mueller–Hinton broth (Sigma-Aldrich, St. Louis, MO, USA), while fungal inoculum was diluted 1:20 in RPMI-1640 medium (Gibco®, ThermoFisher Scientific Inc., Waltham, MA, USA), containing glucose 2%, 0.3% levo-glutamine buffered to pH 7.0 with 0.165 M 3-(N-morpholino)propanesulfonic acid (MOPS). A total of 100 µL of these microbial suspensions was introduced into a 96-well microplate and incubated with 100 µL of the compounds, two-fold serially diluted in the range of 100–0.19 µM. Positive controls (microbial suspensions in regular media), negative controls (only compounds), solvent controls (microbial suspensions incubated with DMSO dilutions), and the reference drug controls were included in the tests. The plate was incubated at 37 °C for 24 h, and subsequently the optical density at 630 nm (OD630nm) was spectrophotometrically measured. Experiments were performed in triplicate with three biological replicates. In addition to MIC, IC50 values were measured for the active compounds. The values, corresponding to the concentration of the compound giving rise to an inhibition of growth of 50%, were obtained by interpolation on dose–response curves generated by plotting the percentages of growth inhibition, relative to the positive control (set to 100% of growth), as a function of the tested concentrations (on a logarithm scale). Statistical analysis was carried out by using GraphPad Prism version 9.4.1 for Windows (GraphPad Software, San Diego, CA, USA, www.graphpad.com).

C. albicans ATCC 10231 = experiment: broth microdilution antifungal assay (MIC); settings: Candida albicans, ATCC10231, 24 h, range 100–0.19 µM
Procedure: The reference strain of Candida albicans (ATCC 10231) was used in the present study and maintained on Sabouraud Dextrose Agar (Biolife Italiana S.r.l., Milan, Italy) before the antifungal assays.
as §3

[2] = test system: clinical isolates of methicillin-resistant S. aureus (MRSA); experiment: broth microdilution IC50 on MRSA clinical isolates; settings: Staphylococcus aureus; five MRSA clinical isolates, range of IC50; read-out: IC50 ranges, MRSA (n = 5)
Description: as §2, §3

[3] = test system: P. falciparum CQ-resistant (CQ-R) W2 strain; experiment: antiplasmodial drug susceptibility assay (pLDH), CQ-resistant strain; settings: Plasmodium falciparum; P. falciparum W2, 72 h, pLDH; mean value with standard deviation; read-out: IC50 W2 (CQ-R)
Procedure: as §1

[4] = cell viability and proliferation assay (CCK-8/WST8); settings: human, WS1 cells (human-derived fibroblasts, ATCC CRL-1502), mean value with standard deviation
Procedure: WS1 cells (ATCC CRL-1502) were selected as a model system to investigate the effect of PTZ-quinoline hybrid compounds on human-derived fibroblasts. Briefly, cells were cultured in DMEM-High glucose supplemented with 10% fetal bovine serum (FBS) (Carlo Erba Reagents, Milan, Italy), 100 U/mL penicillin, and 100 µg/mL streptomycin at 37 °C with 5% CO2. For experiments, cells were seeded into 96-well plates at 0.7 × 10^4 cells/well, and incubated at 37 °C for 24 h. […] Cell viability was assessed by a WST8-based assay according to the manufacturer’s instructions (CCK-8, Cell Counting Kit-8, Dojindo Molecular Technologies, Rockville, MD, USA). After 48 h of incubation, culture medium was removed from each well, the monolayer was washed with PBS, and 100 µL of fresh medium containing 10 µL of CCK-8 solution was added. Following a 2 h incubation at 37 °C, the OD450nm was read, and data were expressed as the percentage of cell viability relative to the untreated controls. The CC50 was obtained on the corresponding dose–response curves generated as previously reported for IC50 values. Experiments were carried out in triplicate in three biological replicates.

[5] = S. aureus ATCC 25923, 24 h, OD630, mean value with standard deviation, read-out: IC50 ATCC 25923
[6] = reference strain, range of IC50, read-out: IC50 ranges, ATCC 25923

| MIC (E. coli ATCC 25923) [µM] | IC50 [1] [µM] | IC50 (S. aureus ATCC 25923; [5]) [µM] | MIC (S. aureus ATCC 25923) [µM] | IC50 (S. aureus ATCC 25923; [6]) [µM] | MIC (C. albicans ATCC 10231) [µM] | IC50 [2] [µM] | IC50 [3] [µM] | SMILES | CC50 at 48 h [4] [µM] |
| --- | --- | --- | --- | --- | --- | --- | --- | --- | --- |
| > 100 | 0.142 ± 0.02 | 7.49 ± 0.15 | 12.5 (≈ 6.06 µg/mL) | 7.34 to 7.64 | > 100 | 7.75 to 8.98 | 0.2 ± 0.03 | Clc1ccc2c(NCCn3cc(CN4c5ccccc5Sc5ccccc54)nn3)ccnc2c1 [Compound 4a, N-(2-(4-((10H-phenothiazin-10-yl)methyl)-1H-1,2,3-triazol-1-yl)ethyl)-7-chloroquinolin-4-amine] | 17.9 ± 3.23 |
| > 100 | 0.156 ± 0.018 | 4.86 ± 0.89 | 6.25 to 12.5 (≈ 3.25 to 6.49 µg/mL) | 3.97 to 5.75 | > 100 | 4.42 to 6.48 | 0.154 ± 0.002 | Clc1ccc2c(c1)N(Cc1cn(CCNc3ccnc4cc(Cl)ccc34)nn1)c1ccccc1S2 [Compound 4b, 7-chloro-N-(2-(4-((2-chloro-10H-phenothiazin-10-yl)methyl)-1H-1,2,3-triazol-1-yl)ethyl)quinolin-4-amine] | 12.7 ± 3.51 |
| > 100 | 0.292 ± 0.078 | 6.73 ± 1.32 | 12.5 (≈ 6.24 µg/mL) | 5.41 to 8.05 | > 100 | 6.4 to 9.63 | 0.174 ± 0.025 | Clc1ccc2c(NCCCn3cc(CN4c5ccccc5Sc5ccccc54)nn3)ccnc2c1 [Compound 5a, N-(3-(4-((10H-phenothiazin-10-yl)methyl)-1H-1,2,3-triazol-1-yl)propyl)-7-chloroquinolin-4-amine] | 11.8 ± 0.14 |
| > 100 | 0.146 ± 0.006 | 5.03 ± 1.72 | 6.25 to 12.5 (≈ 3.33 to 6.67 µg/mL) | 3.31 to 6.75 | > 100 | 6.18 to 10.3 | 0.135 ± 0.017 | Clc1ccc2c(c1)N(Cc1cn(CCCNc3ccnc4cc(Cl)ccc34)nn1)c1ccccc1S2 [Compound 5b, 7-chloro-N-(3-(4-((2-chloro-10H-phenothiazin-10-yl)methyl)-1H-1,2,3-triazol-1-yl)propyl)quinolin-4-amine] | 22.1 ± 0.66 |
| > 100 | 12.6 ± 0.241 | – | > 100 | – | > 100 | – | 2.17 ± 0.243 | Clc1ccc2c(N3CCN(CCCn4cc(CN5c6ccccc6Sc6ccccc65)nn4)CC3)ccnc2c1 [Compound 8, 10-((1-(3-(4-(7-chloroquinolin-4-yl)piperazin-1-yl)propyl)-1H-1,2,3-triazol-4-yl)methyl)-10H-phenothiazine] | > 100 |
